Where a name gives a salt, the structure may show the parent alone. Read-outs that look alike come from different tables or passages of the source.
Tests used:
[1] = system: arrythmogenic and lethal effects of calcium chloride; assay: Antagonism towards the arrhythmogenic and lethal effects of calcium chloride in mice (ECG); assay type: in vivo
Method: (§1) In the experiments on white mice narcotized with urethane ECGs were recorded in the second standard lead. A 2% solution of calcium chloride was injected into the tail vein at a constant rate (00.1 ml during 2 seconds).

Aconitic arrhythmia = assay: Antiarrhythmic activity on aconitic model of arrhythmia in rats; assay type: in vivo, albino rats; conditions: for ED50: Rattus norvegicus, ip, read-out: ED50, aconitic arrhythmia in rats (average effective antiarrhythmic dose)
Method: (§2) Comparative study of the antiarrhythmic activity of the compounds on an aconitic model of arrhythmia was carried out on albino rats narcotized with urethane and chloralose (intraperitoneally), ECGs were recorded in the second standard lead.

Strophanthin arrhythmia = assay: Arrest of strophanthin arrhythmia in guinea pigs; assay type: in vivo; conditions: for ED50: Cavia porcellus, read-out: ED50, strophanthin arrhythmia in guinea pigs
in vivo = conditions: mouse, in vivo, ip
Source text: (§3) Acute toxicity was investigated on mongrel white mice of both sexes (Table 2).

white mice = assay: in vivo; conditions: intraperitoneal
Source text: as §3

cardiac arrhythmia = conditions: cited from earlier work; for antiarrhythmic activity / effect on arterial pressure (side-effect): medical practice; for antiarrhythmic activity / effect on arterial pressure (side-effect) / toxicity: prior art
Solubility in water = assay type: physicochemical
[2] = system: experimental models of arrhythmia; assay: Antiarrhythmic activity on experimental models of arrhythmia (calcium, aconitic and strophanthin), overall; assay type: in vivo, mice, rats, guinea pigs; conditions: for antiarrhythmic activity: in vivo
Method: The action of 2-(2,6-dimethyl-3,5-diethoxycarbonyl-1,4-dihydropyridine-4-carboxamide) glutaric acid and its disodium salt on the cardiovascular system was studied in experiments with mice, rats, guinea pigs and cats. […] Antiarrhythmic agents such as quinidine and novocaine amide (procaine amide) were used for comparisons in the […] study.
as §1, §2
Guinea pigs were narcotized with urethane and chloralose then strophanthin was administered in them, and against the background of arrhythmia, the above compound was administered intravenously. The doses of the compound, that arrest the strophanthin arrhythmia in the guinea pigs were recorded.

cardiovascular system = assay: Acute experiments in narcotized cats: arterial pressure, respiration, ECG and haemodynamic effects of acetyl choline; assay type: in vivo
Method: In acute experiments with cats narcotized with chloralose and urethane arterial pressure, respiration and ECG were recorded. The influence of the above comound on the arterial pressure, respiration, and on the haemodynamic effects of acetyl choline were investigated. Anaqueous solution of the compound was administered intravenously.

[3] = compound dose 3 mg/kg intraperitoneally
[4] = compound dose 10 mg/kg intraperitoneally
[5] = compound dose 30 mg/kg intraperitoneally
[6] = guinea pigs, intravenous, against background of arrhythmia
[7] = compound dose 6 mg/kg intraperitoneally
[8] = strophanthin arrhythmia, guinea pigs
[9] = cats, intravenous, 0.1-0.2 g/kg

| Compound | Dose of CaCl2, arrhythmogenic [1, 3] [mg/kg] | Dose of CaCl2, lethal [1, 3] [mg/kg] | Dose of CaCl2, arrhythmogenic [1, 4] [mg/kg] | Dose of CaCl2, lethal [1, 4] [mg/kg] | ED50 (Aconitic arrhythmia) [mg/kg] | LD50 (in vivo) [mg/kg] | antiarrhythmic activity (cardiac arrhythmia) | effect on arterial pressure (side-effect) (cardiac arrhythmia) | toxicity (cardiac arrhythmia) | ED50 (Strophanthin arrhythmia; [6]) [mg/kg] | solubility in water (Solubility in water) | antiarrhythmic activity [2] | also measured |
| --- | --- | --- | --- | --- | --- | --- | --- | --- | --- | --- | --- | --- | --- |
| C=C[C@H]1C[N@@]2CC[C@H]1C[C@@H]2[C@@H](O)c1ccnc2ccc(OC)cc12 [Quinidine, reference compound] | 126.9 | 136.0 | 120.8 | 133.5 | 4.3 ± 0.6 | 156 | insufficient antiarrthythmic activity | drastically reduce the arterial pressure | toxic | – | – | – | ED50 (Strophanthin arrhythmia; iv): 2.3 ± 0.4 mg/kg; Acute toxicity, LD50 (white mice; white mice, confidence limit at P = 0.05): 156 mg/kg; effect on strophanthin arrhythmia, in clinic (cardiac arrhythmia; clinic): in some cases is ineffective |
| CCN(CC)CCNC(=O)c1ccc(N)cc1 [Novocaine amide, reference compound] | – | – | 116.0 | 120.0 | 45 ± 5 | 290 | insufficient antiarrthythmic activity | drastically reduce the arterial pressure | toxic | 55 ± 7.3 | – | – | Dose of CaCl2, arrhythmogenic [1, 5]: 127.0 mg/kg; Dose of CaCl2, lethal [1, 5]: 138.0 mg/kg |
| CCOC(=O)C1=C(C)NC(C)=C(C(=O)OCC)C1C(=O)NC(CCC(=O)O)C(=O)O (stereo not shown) [Compound of formula I, 2-(2,6-dimethyl-3,5-diethoxycarbonyl-1,4-dihydropyridine-4-carboxamide) glutaric acid] | – | – | – | – | – | – | – | – | – | – | hardly soluble in water | pronouncedantiarrhythmic activity | antiarrhythmic effect compared with novocaine amide ([1]; novocaine amide dose 30 mg/kg, CaCl2 model, mice): same antiarrhythic effect as novocaine amide in a dose of 30 mg/kg |
| CCOC(=O)C1=C(C)NC(C)=C(C(=O)OCC)C1C(=O)NC(CCC(=O)O)C(=O)O (stereo not shown) [Compound of formula II, disodium salt of 2-(2,6-dimethyl-3,5-diethoxycarbonyl-1,4-dihydropyridine-4-carboxamide) glutaric acid] | 98.4 | 105.0 | 130.5 | 140.5 | 3 ± 0.5 | > 2000 | – | – | – | 2.1 ± 0.3 | well soluble in water | pronounced antiarrhythmic activity | Dose of CaCl2, arrhythmogenic [1, 7]: 127.4 mg/kg; Dose of CaCl2, lethal [1, 7]: 134.5 mg/kg; effect on arrhythmogenic and lethal doses of calcium chloride ([1]; preliminary administration 20-30 minutes prior to narcosis, mice): considerably increases; antiarrhythmic activity compared with quinidine and novocaine amide (Aconitic arrhythmia; aconitic model, rats, intraperitoneal 30-40 minutes before aconitine): higher antiarrhythmic activity than quinidine and novocane amide; effect on experimental strophanthin arrhythmia (Strophanthin arrhythmia; guinea pig, in vivo): stable effect; activity compared with quinidine (Strophanthin arrhythmia; [8]): not inferior to quinidine; activity relative to novocaine amide (Strophanthin arrhythmia; [8]): approximately 25 fold; toxicity relative to novocaine amide (white mice; mice): 1/17; toxicity relative to quinidine (white mice; mice): 1/12; change in arterial pressure (cardiovascular system; [9]): does not cause any significant change; change in pulse rate (cardiovascular system; [9]): does not cause any significant change; change in respiration rate (cardiovascular system; [9]): does not cause any significant change; response reaction to acetyl choline (cardiovascular system; cats, intravenous, doses of up to 4 mg/kg): does not reduce the response reaction to acetyl choline; drop of the arterial pressure (cardiovascular system; intravenous application): does not cause a drastic drop of the arterial pressure; activity on experimental models of arrhythmia compared with quinidine and novocaine amide ([2]; calcium, aconitic and strophanthin models): higher activity on all kinds of experimental models of arrhythmia |

— US4485239A, “2-(2,6-Dimethyl-3,5-diethoxycarbonyl-1,4-dihydropyridine-4-carboxamide glutaric acid its disodium salt and method of their preparation” (priority 1982, dated 1984)
